PubChem BioAssay (NCI)
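Assay format: 96-well plates, 48-hour exposure. Abbreviation: GI50, concentration required for 50% inhibition of growth. TGI: concentration producing complete growth inhibition.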

How the values were obtained:
Assay in all cases: inhibition of tumour cell growth, NCI panel, 48 h
NCI/ADR-RES ovarian = system: NCI/ADR-RES ovarian
HS 578T breast = system: HS 578T breast
BT-549 breast = system: BT-549 breast
SNB-75 CNS = system: SNB-75 CNS
HOP-62 NSCLC = system: HOP-62 NSCLC
TK-10 renal = system: TK-10 renal

SMILES	GI50 (NCI/ADR-RES ovarian) [µM]	TGI (NCI/ADR-RES ovarian) [µM]	GI50 (HS 578T breast) [µM]	TGI (HS 578T breast) [µM]	GI50 (BT-549 breast) [µM]	TGI (BT-549 breast) [µM]	GI50 (SNB-75 CNS) [µM]	TGI (SNB-75 CNS) [µM]	GI50 (HOP-62 NSCLC) [µM]	TGI (HOP-62 NSCLC) [µM]	GI50 (TK-10 renal) [µM]	TGI (TK-10 renal) [µM]
COc1cc(C2CC(c3ccc(C)cc3)=NN2C=O)ccc1Oc1ccnc2cc(Cl)ccc12 (stereo not given)	> 50	> 50	1.82	> 50	3.96	> 50	1.13	6.92	1.68	8.95	–	–
O=C(CCCCCCSc1nc(-c2ccccc2)cc(-c2ccc(Cl)cc2)n1)NO	0.596	8.84	2.76	20.1	3.67	17.5	1.95	13.7	1.96	5.24	2.78	13.5
Cc1ccc(CNc2c3ccccc3nc3ccccc23)cc1	1.74	5.35	2.46	6.6	2.43	6.34	0.402	6.8	3.58	16.8	2.97	12.6
O=[N+]([O-])c1ccc(C(c2c[nH]c3ccccc23)c2c[nH]c3ccccc23)cc1	–	27.5	–	51.1	–	14.3	–	18.5	–	30.3	–	28.5
N#Cc1c(-c2nc3ccccc3s2)c(=O)oc2cc(O)ccc12	–	> 100	–	> 100	–	62.8	–	> 100	–	57.3	–	> 100
CS(=O)(=O)CCNCc1nc(-c2ccc3ncnc(Nc4ccc(F)c(Cl)c4)c3c2)cs1	13.9	> 25	15.9	> 25	> 25	> 25	> 18.3	> 25	> 24.1	> 25	0.232	> 25
Cc1c2c(nn1-c1ccc(S(=O)(=O)NC(=S)Nc3ccccc3)cc1)-c1ccccc1CC2	> 50	> 50	44.6	> 50	> 50	> 50	> 50	> 50	–	–	10	46.9
Cc1ccc(-[n+]2c3cc(N)c(C)cc3nc3cc(C)c(Nc4ccccc4)cc32)cc1	–	–	0.0734	0.415	0.128	0.717	0.154	0.419	0.0472	0.397	0.148	1.04
O=C(NNc1nc(Cl)nc(N2CCN(C(c3ccccc3)c3ccccc3)CC2)n1)c1ccccc1	2.08	4.41	1.94	4.8	1.69	3.09	1.43	2.75	1.88	4.04	> 100	> 100
COc1ccc2nc(N/N=C(\C)c3ccccn3)cc(C)c2c1	0.274	–	1.76	9.39	0.168	1.96	1.82	7.49	0.259	1.11	0.207	0.991
COc1cc2c(cc1OC)C(=O)/C(=C/c1cccc(OCC(=O)c3ccccc3)c1)C2	6.93	> 100	13.1	75.2	24.9	> 100	12	37.8	35.8	> 100	57.8	> 100
CCC[CH2][Sn-]([CH2]CCC)([CH2]CCC)[O]c1cc(Cl)c(Cl)cc1Cl	0.163	0.385	0.00467	0.212	–	–	0.231	1.14	0.228	0.507	0.287	0.957
O=C1NCc2ccc3c(-c4cccc(Cl)c4)c[nH]c3c21	0.175	> 50	0.182	> 50	0.245	> 45.7	–	–	0.324	> 50	7.12	> 50
COc1cc(C2C=C(c3cccc(NC(C)=O)c3)Nc3ncnn32)cc(OC)c1OC (stereo not given)	8.04	63.7	0.153	0.413	1.07	> 100	4.14	> 100	0.554	> 100	7.55	> 100
CCOC(=O)c1ccc(NC(=O)N2CC(C)OC(C)C2)cc1 (stereo not given)	> 100	> 100	> 100	> 100	> 100	> 100	> 100	> 100	> 100	> 100	> 100	> 100
CNC(=O)c1cc(OC2CCC(NC(=O)Nc3ccc(Cl)c(C(F)(F)F)c3)CC2)ccn1 (stereo not given)	5.67	44.3	11.6	63.1	7.8	23.6	16	38.9	15	31.4	18.4	49.2
COc1ccc(-c2nn3ncccc3c2-c2ccnc(Nc3ccc(Cl)c(C(F)(F)F)c3)n2)cc1	7.62	> 25	9.15	> 25	10.2	> 25	> 13.8	> 25	15.5	> 25	13.2	> 25
C=C1C(=O)O[C@H]2[C@H]1CC/C(COC(=O)c1cc3cc(F)ccc3[nH]1)=C\CC[C@@]1(C)O[C@@H]21	1.98	5.39	2.95	18.8	–	–	11.1	23.9	2.92	14.9	1.83	3.3
ClCc1cccc(Cn2cnc3c(Cl)ncnc32)c1	2.43	7.62	3.48	11.5	15.3	30.2	2.09	4.56	2.6	5.11	4.59	16.1
CC(=O)Nc1ccc2c(c1)c(C1=C(c3cn(C)c4ccccc34)C(=O)NC1=O)cn2C	1.58	> 25	0.596	> 6.79	1.55	14.8	0.465	> 6.67	1.98	> 25	4.21	> 25
